According to PubChem BioAssay AID2060906 (Molecular Pharmacology Branch, DTP, NCI, 2025):
Blank lines part the entries; values can stand above or below the compound they belong to.

Test system: 485176-168-R4-J1-PDC complex spheroid growth
Assay: Anticancer human tumor 485176-168-R4-J1-PDC patient-derived pancreatic adenocarcinoma cell line growth inhibition [RAS]
Details: for IC50: curve of first compound; for viability, T/C: stronger effect = lower value
Procedure, shortened: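 Tumour cells grown as complex spheroids with HUVEC endothelial cells and mesenchymal stem cells, treated with RAS pathway inhibitor combinations. Each agent spans half-log steps from near clinical Cmax, or 10 microM where Cmax is unknown.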

[1] = second compound 0.000949 µM, first compound 0.00316 µM
[2] = second compound 0.000949 µM, first compound 0.01 µM
[3] = second compound 0.000949 µM, first compound 0.0316 µM
[4] = second compound 0.000949 µM, first compound 0.1 µM
[5] = second compound 0.003 µM, first compound 0.00316 µM
[6] = second compound 0.003 µM, first compound 0.01 µM
[7] = second compound 0.003 µM, first compound 0.0316 µM
[8] = second compound 0.003 µM, first compound 0.1 µM
[9] = second compound 0.00949 µM, first compound 0.00316 µM
[10] = second compound 0.00949 µM, first compound 0.01 µM
[11] = second compound 0.00949 µM, first compound 0.0316 µM
[12] = second compound 0.00949 µM, first compound 0.1 µM
[13] = second compound 0.03 µM, first compound 0.00316 µM
[14] = second compound 0.03 µM, first compound 0.01 µM
[15] = second compound 0.03 µM, first compound 0.0316 µM
[16] = second compound 0.03 µM, first compound 0.1 µM
[17] = second compound 0.0949 µM, first compound 0.00316 µM
[18] = second compound 0.0949 µM, first compound 0.01 µM
[19] = second compound 0.0949 µM, first compound 0.0316 µM
[20] = second compound 0.0949 µM, first compound 0.1 µM
[21] = second compound 0.3 µM, first compound 0.00316 µM
[22] = second compound 0.3 µM, first compound 0.01 µM
[23] = second compound 0.3 µM, first compound 0.0316 µM
[24] = second compound 0.3 µM, first compound 0.1 µM
[25] = second compound 0.000949 µM, first compound 0.316 µM
[26] = second compound 0.000949 µM, first compound 1 µM
[27] = second compound 0.000949 µM, first compound 3.16 µM
[28] = second compound 0.000949 µM, first compound 10 µM
[29] = second compound 0.003 µM, first compound 0.316 µM
[30] = second compound 0.003 µM, first compound 1 µM
[31] = second compound 0.003 µM, first compound 3.16 µM
[32] = second compound 0.003 µM, first compound 10 µM
[33] = second compound 0.00949 µM, first compound 0.316 µM
[34] = second compound 0.00949 µM, first compound 1 µM
[35] = second compound 0.00949 µM, first compound 3.16 µM
[36] = second compound 0.00949 µM, first compound 10 µM
[37] = second compound 0.03 µM, first compound 0.316 µM
[38] = second compound 0.03 µM, first compound 1 µM
[39] = second compound 0.03 µM, first compound 3.16 µM
[40] = second compound 0.03 µM, first compound 10 µM
[41] = second compound 0.0949 µM, first compound 0.316 µM
[42] = second compound 0.0949 µM, first compound 1 µM
[43] = second compound 0.0949 µM, first compound 3.16 µM
[44] = second compound 0.0949 µM, first compound 10 µM
[45] = second compound 0.3 µM, first compound 0.316 µM
[46] = second compound 0.3 µM, first compound 1 µM
[47] = second compound 0.3 µM, first compound 3.16 µM
[48] = second compound 0.3 µM, first compound 10 µM
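Also: spheroids exposed to compounds for seven days before readout.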
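For viability, T/C in this document: luminescence viability expressed relative to DMSO vehicle wells set as 100%.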

- IC50 (second compound 0.000949 µM): 0.0203 µM
- IC50 (second compound 0.003 µM): 0.023 µM
- IC50 (second compound 0.00949 µM): 0.0185 µM
- IC50 (second compound 0.03 µM): 0.0138 µM
- IC50 (second compound 0.0949 µM): 0.0109 µM
- IC50 (second compound 0.3 µM): 0.00946 µM
Structure (SMILES): CC(C)n1nc(-c2ccc3oc(N)nc3c2)c2c(N)ncnc21 + CCn1c(-c2cc(N3CCN(C)CC3)cnc2C(C)OC)c2c3cc(ccc31)-c1csc(n1)CC(NC(=O)C1CC1C)C(=O)N1CCCC(N1)C(=O)OCC(C)(C)C2
- viability, T/C (second compound 0.000949 µM, first compound 0.000316 µM): 98.5%
- viability, T/C (second compound 0.000949 µM, first compound 0.001 µM): 93.7%
- viability, T/C [1]: 76.8%
- viability, T/C [2]: 70.4%
- viability, T/C [3]: 37.4%
- viability, T/C [4]: 19.2%
- viability, T/C (second compound 0.003 µM, first compound 0.000316 µM): 96.8%
- viability, T/C (second compound 0.003 µM, first compound 0.001 µM): 89.6%
- viability, T/C [5]: 93.3%
- viability, T/C [6]: 65.9%
- viability, T/C [7]: 44.4%
- viability, T/C [8]: 18.5%
- viability, T/C (second compound 0.00949 µM, first compound 0.000316 µM): 97.1%
- viability, T/C (second compound 0.00949 µM, first compound 0.001 µM): 89%
- viability, T/C [9]: 76.9%
- viability, T/C [10]: 63.9%
- viability, T/C [11]: 38.4%
- viability, T/C [12]: 19.1%
- viability, T/C (second compound 0.03 µM, first compound 0.000316 µM): 95.9%
- viability, T/C (second compound 0.03 µM, first compound 0.001 µM): 81%
- viability, T/C [13]: 63%
- viability, T/C [14]: 63.3%
- viability, T/C [15]: 34.8%
- viability, T/C [16]: 23.6%
- viability, T/C (second compound 0.0949 µM, first compound 0.000316 µM): 94.3%
- viability, T/C (second compound 0.0949 µM, first compound 0.001 µM): 84.8%
- viability, T/C [17]: 61.5%
- viability, T/C [18]: 57.3%
- viability, T/C [19]: 30.9%
- viability, T/C [20]: 17.4%
- viability, T/C (second compound 0.3 µM, first compound 0.000316 µM): 81.1%
- viability, T/C (second compound 0.3 µM, first compound 0.001 µM): 77%
- viability, T/C [21]: 68.2%
- viability, T/C [22]: 50.2%
- viability, T/C [23]: 25.9%
- viability, T/C [24]: 16.1%

- IC50 (second compound 0.000949 µM): 1.46 µM
- IC50 (second compound 0.003 µM): 3.44 µM
- IC50 (second compound 0.00949 µM): 1.72 µM
- IC50 (second compound 0.03 µM): 1.66 µM
- IC50 (second compound 0.0949 µM): 1.39 µM
- IC50 (second compound 0.3 µM): 1.51 µM
Structure (SMILES): CC1(O)CCCC1n1c(=O)c(C(F)F)cc2cnc(NC3CCN(S(C)(=O)=O)CC3)nc21 (stereo not drawn) + CCn1c(-c2cc(N3CCN(C)CC3)cnc2C(C)OC)c2c3cc(ccc31)-c1csc(n1)CC(NC(=O)C1CC1C)C(=O)N1CCCC(N1)C(=O)OCC(C)(C)C2
- viability, T/C [3]: 81.1%
- viability, T/C [4]: 67.5%
- viability, T/C [25]: 63%
- viability, T/C [26]: 48.1%
- viability, T/C [27]: 48.4%
- viability, T/C [28]: 2.12%
- viability, T/C [7]: 73.9%
- viability, T/C [8]: 56%
- viability, T/C [29]: 71.5%
- viability, T/C [30]: 59.7%
- viability, T/C [31]: 54.9%
- viability, T/C [32]: 1.93%
- viability, T/C [11]: 78.6%
- viability, T/C [12]: 68.6%
- viability, T/C [33]: 60.8%
- viability, T/C [34]: 61.5%
- viability, T/C [35]: 41.5%
- viability, T/C [36]: 1.63%
- viability, T/C [15]: 63.7%
- viability, T/C [16]: 50.4%
- viability, T/C [37]: 56.6%
- viability, T/C [38]: 56%
- viability, T/C [39]: 43.1%
- viability, T/C [40]: 1.78%
- viability, T/C [19]: 59.4%
- viability, T/C [20]: 60.9%
- viability, T/C [41]: 51.3%
- viability, T/C [42]: 49.4%
- viability, T/C [43]: 44.7%
- viability, T/C [44]: 2.07%
- viability, T/C [23]: 75.7%
- viability, T/C [24]: 48.5%
- viability, T/C [45]: 44%
- viability, T/C [46]: 58.9%
- viability, T/C [47]: 43%
- viability, T/C [48]: 1.81%

- IC50 (second compound 0.000949 µM): > 1 µM
- IC50 (second compound 0.003 µM): > 1 µM
- IC50 (second compound 0.00949 µM): 0.756 µM
- IC50 (second compound 0.03 µM): 0.938 µM
- IC50 (second compound 0.0949 µM): 0.929 µM
- IC50 (second compound 0.3 µM): > 1 µM
Structure (SMILES): CCN1CCN(Cc2ccc(Nc3ncc(F)c(-c4cc(F)c5nc(C)n(C(C)C)c5c4)n3)nc2)CC1 + CCn1c(-c2cc(N3CCN(C)CC3)cnc2C(C)OC)c2c3cc(ccc31)-c1csc(n1)CC(NC(=O)C1CC1C)C(=O)N1CCCC(N1)C(=O)OCC(C)(C)C2
- viability, T/C [1]: 78.7%
- viability, T/C [2]: 80.9%
- viability, T/C [3]: 81%
- viability, T/C [4]: 67.4%
- viability, T/C [25]: 73%
- viability, T/C [26]: 54.8%
- viability, T/C [5]: 84.9%
- viability, T/C [6]: 76.5%
- viability, T/C [7]: 85.2%
- viability, T/C [8]: 66.9%
- viability, T/C [29]: 62.7%
- viability, T/C [30]: 53.8%
- viability, T/C [9]: 75.3%
- viability, T/C [10]: 85.8%
- viability, T/C [11]: 73.4%
- viability, T/C [12]: 70.2%
- viability, T/C [33]: 63%
- viability, T/C [34]: 45.9%
- viability, T/C [13]: 77.5%
- viability, T/C [14]: 68.1%
- viability, T/C [15]: 75.3%
- viability, T/C [16]: 58.3%
- viability, T/C [37]: 63.8%
- viability, T/C [38]: 47.9%
- viability, T/C [17]: 64.7%
- viability, T/C [18]: 74.7%
- viability, T/C [19]: 59.2%
- viability, T/C [20]: 55.1%
- viability, T/C [41]: 51.6%
- viability, T/C [42]: 52%
- viability, T/C [21]: 54.9%
- viability, T/C [22]: 76.6%
- viability, T/C [23]: 70.9%
- viability, T/C [24]: 65.3%
- viability, T/C [45]: 53.5%
- viability, T/C [46]: 51%

- IC50 (second compound 0.000949 µM): > 10 µM
- IC50 (second compound 0.003 µM): > 10 µM
- IC50 (second compound 0.00949 µM): > 10 µM
- IC50 (second compound 0.03 µM): > 10 µM
- IC50 (second compound 0.0949 µM): 2.38 µM
- IC50 (second compound 0.3 µM): 4.37 µM
Structure (SMILES): C[C@@H](NC(=O)c1ncnc(N)c1Cl)c1ncc(C(=O)Nc2cc(C(F)(F)F)c(Cl)cn2)s1 + CCn1c(-c2cc(N3CCN(C)CC3)cnc2C(C)OC)c2c3cc(ccc31)-c1csc(n1)CC(NC(=O)C1CC1C)C(=O)N1CCCC(N1)C(=O)OCC(C)(C)C2
- viability, T/C [3]: 102%
- viability, T/C [4]: 92.3%
- viability, T/C [25]: 83.9%
- viability, T/C [26]: 67.5%
- viability, T/C [27]: 83.7%
- viability, T/C [28]: 83.8%
- viability, T/C [7]: 86.6%
- viability, T/C [8]: 97.8%
- viability, T/C [29]: 92.4%
- viability, T/C [30]: 84.1%
- viability, T/C [31]: 71.7%
- viability, T/C [32]: 58.1%
- viability, T/C [11]: 92.7%
- viability, T/C [12]: 90.9%
- viability, T/C [33]: 74%
- viability, T/C [34]: 74%
- viability, T/C [35]: 57.6%
- viability, T/C [36]: 56.2%
- viability, T/C [15]: 92.1%
- viability, T/C [16]: 77.6%
- viability, T/C [37]: 89.5%
- viability, T/C [38]: 55.8%
- viability, T/C [39]: 56.3%
- viability, T/C [40]: 43.8%
- viability, T/C [19]: 78.2%
- viability, T/C [20]: 80.3%
- viability, T/C [41]: 59.7%
- viability, T/C [42]: 51.4%
- viability, T/C [43]: 56.1%
- viability, T/C [44]: 36.2%
- viability, T/C [23]: 85.4%
- viability, T/C [24]: 69.6%
- viability, T/C [45]: 65.5%
- viability, T/C [46]: 58.7%
- viability, T/C [47]: 57%
- viability, T/C [48]: 42.3%
